{"source": "patent US5607673A", "about": "“Purified extract of uvaria brevistipitata and a process for obtaining the purified extract therefor” (C.S.S.A.H.A., Inc., priority 1995, dated 1997)", "origin": "cited, not measured here", "key": {"Colon-38 adenocarcinoma": {"test_system": "Colon-38 adenocarcinoma", "settings": "Lumonadio et al. 1991"}, "[1]": {"test_system": "P-388 mouse lymphocytic leukemia cells", "settings": "Lumonadio et al. 1991"}, "[2]": {"test_system": "multi-drug resistant K 1 strain of plasmodium falciparum", "settings": "in vitro; Nkunya et al. 1991"}, "[3]": {"test_system": "NADH-Ubiquinone Reductase (Complex I)", "settings": "Degli et al. 1994; for Complex I inhibitory constant and protein dependence of titer vs classical inhibitors: bovine submitochondrial particles"}, "tumor": {"test_system": "tumor", "settings": "Cole et al. 1976"}, "[4]": {"test_system": "P-388 lymphocytic leukemia", "settings": "in vitro; Jolad et al. 1982"}, "[5]": {"settings": "U.S. Pat. No. 5,229,419"}}, "data": [{"molecule": "15-desacetylundulatone", "values": [{"measurement": "activity against Colon-38 adenocarcinoma", "setting": "Colon-38 adenocarcinoma", "result": "active"}, {"measurement": "activity against P-388 cells", "setting": "[1]", "result": "active"}]}, {"molecule": "CC(C)=CC(O)C(O)C(C)=CCCC(C)=CCc1c[nH]c2ccccc12", "note": "(stereo not shown) [8',9'-dihydroxy-3-farnesylindole]", "values": [{"measurement": "anti-malarial activity", "setting": "[2]", "result": "most active"}]}, {"molecule": "COc1c(Cc2ccccc2O)c(O)c(Cc2ccccc2O)c(O)c1C(=O)CCc1ccccc1", "note": "[Diuveretin]", "values": [{"measurement": "anti-malarial activity", "setting": "[2]", "result": "most active"}]}, {"molecule": "CCCCCCCCCC[C@H](O)[C@H]1CC[C@@H]([C@@H]2CC[C@H]([C@H](O)CCCCCCCCCC[C@@H](O)CC3=C[C@H](C)OC3=O)O2)O1", "note": "[Rolliniastatin-1]", "values": [{"measurement": "Complex I inhibitory constant and protein dependence of titer vs classical inhibitors", "setting": "[3]", "result": "more powerful"}]}, {"molecule": "CCCCCCCCCC[C@H](O)[C@H]1CC[C@H]([C@H]2CC[C@H]([C@H](O)CCCCCCCCCCC(O)CC3=C[C@H](C)OC3=O)O2)O1", "note": "(stereo partly shown) [Rolliniastatin-2]", "values": [{"measurement": "Complex I inhibitory constant and protein dependence of titer vs classical inhibitors", "setting": "[3]", "result": "more powerful"}]}, {"molecule": "CCCCCC[C@H](O)CCC[C@H](O)[C@H]1CC[C@H]([C@H]2CC[C@H]([C@H](O)CCCCCCCCCCCCC3=C[C@H](C)OC3=O)O2)O1", "note": "[Squamocin]", "values": [{"measurement": "Complex I inhibitory constant vs the classical inhibitor", "setting": "[3]", "result": "lower than that of the classical inhibitor"}]}, {"molecule": "COc1cc(O)c(Cc2ccccc2O)c(O)c1C(=O)CCc1ccccc1", "note": "[Uvaratin]", "values": [{"measurement": "anti-tumor activity", "setting": "tumor", "result": "shown to have anti-tumor activity"}]}, {"molecule": "COc1cc(O)c(Cc2ccccc2O)c(O)c1C(=O)CCc1ccccc1", "note": "[Uvaretin]", "values": [{"measurement": "anti-malarial activity", "setting": "[2]", "result": "most active"}]}, {"molecule": "CCCCCCCCCC[C@H](OC(C)=O)[C@H]1CC[C@H]([C@H]2CC[C@H]([C@H](O)CCCCCCCCCCCCC3=C[C@H](C)OC3=O)O2)O1", "note": "[Uvaricin]", "values": [{"measurement": "activity against P-388 lymphocytic leukemia", "setting": "[4]", "result": "demonstrated an in vitro activity"}]}, {"molecule": "CCCCCCCCCC[C@H](O)[C@H]1CC[C@H]([C@H]2CC[C@H]([C@H](O)CCCCCCCCCC[C@@H](O)CC3=C[C@H](C)OC3=O)O2)O1", "note": "[bullatacin]", "values": [{"measurement": "antitumor and pesticidal activity", "setting": "[5]", "result": "exhibit antitumor and pesticidal activity"}]}, {"molecule": "CCCCCCCCCC[C@H](O)[C@H]1CC[C@H]([C@H]2CC[C@H]([C@H](O)CCCCCCCCCC[C@@H]3CC(CC(C)=O)C(=O)O3)O2)O1", "note": "(stereo partly shown) [bullatacinone]", "values": [{"measurement": "antitumor and pesticidal activity", "setting": "[5]", "result": "exhibit antitumor and pesticidal activity"}]}, {"molecule": "Otivarin", "values": [{"measurement": "Complex I inhibitory constant vs the classical inhibitor", "setting": "[3]", "result": "lower than that of the classical inhibitor"}]}]}
